Measured values from PMC9249674, “A small-molecule Skp1 inhibitor elicits cell death by p53-dependent mechanism” (iScience, 2022).

Columns and labels:
ΔSkp1^1−140 = biological target: T1, ΔSkp1^1−140 (Homo sapiens, UniProt P63208); assay: LC-MS/MS analysis of in vitro binding; details: ΔSkp1^1−140, overnight incubation
T1 construct: pETDuet-Skp1(1-140); His6; made in house; host or cells: Escherichia coli BL21 (DE3)

Skp1^WT = biological target: T2, Skp1^WT (Homo sapiens, UniProt P63208); assay: SPRi assay; type: binding
T2 construct: recombinantly purify intact (Skp1^WT) and truncate (ΔSkp1^1−140; lacking H8-helix) forms of Skp1; His6; made in house; host or cells: Escherichia coli BL21 (DE3)
Method: (§1) Freshly deposited gold coated standard SPRi chips/slides (Plexera, LLC) were cleaned, and compound(s) at 10 mM concentration in 100% DMSO were spotted on the chips using a micropipette. After this, the slides were left for complete evaporation of DMSO (under vacuum) at room temperature for 2 hrs. After printing, the slides were exposed to UV irradiation 2.4 J/cm^2 (365 nm) in a UV chamber (Amersham life science). The slides were subsequently washed with DMSO, ethanol, and finally with distilled water for 15 minutes (ultrasonically), respectively, to remove non-covalently bound compounds. After drying with nitrogen, the slides were assembled with flow cell and then mounted on SPRi instrument for measurement, or stored at 4°C to be used for later experiments.
All the experiments were carried out using the PlexArray® HT system (Plexera, LLC), which is based on surface plasmon resonance imaging. Oval regions of interests (ROIs) were set as 9 pixels × 7 pixels area in imaging area. ROIs of vehicle (DMSO) were used as controls for measurement of specific signals. All samples were injected with an association and dissociation flow rate of 3 μL s^−1 and at 25°C. A 1:3 mixture of glycine. HCL (pH 4.2) and 0.5% (v/v) SDS, respectively, was used to regenerate the surface and remove bound proteins from the small molecules enabling the sensor chip to be reused for additional analyte injections. […]

mycobacterial = assay: Anti-mycobacterial evaluation; type: cell-based
Skp1 (V123D) = biological target: T3, Skp1 (V123D) (Homo sapiens, UniProt P63208, V123D); assay: SPRi assay, Skp1 mutant; type: binding
T3 construct: His6; made in house; host or cells: Escherichia coli BL21 (DE3)
Method: as §1
(§2) All the experiments were carried out using the PlexArray® HT system (Plexera, LLC), which is based on surface plasmon resonance imaging. Oval regions of interests (ROIs) were set as 9 pixels × 7 pixels area in imaging area. ROIs of vehicle (DMSO) were used as controls for measurement of specific signals. All samples were injected with an association and dissociation flow rate of 3 μL s^−1 and at 25°C. A 1:3 mixture of glycine. HCL (pH 4.2) and 0.5% (v/v) SDS, respectively, was used to regenerate the surface and remove bound proteins from the small molecules enabling the sensor chip to be reused for additional analyte injections.
(§3) The Tris buffer (10 mM Tris-HCl pH 8.0, 100 mM NaCl), without any reducing agent, was used as both analyte and running buffer. Purified recombinant proteins, including Skp1^WT, ΔSkp1^1−140, and any of the desired mutant(s), were in the Tris buffer (10 mM Tris-HCl pH 8.0, 100 mM NaCl). For testing the compound(s), multiple concentrations (0.5 μM, 1 μM, 4 μM and 8 μM) of Skp1^WT or ΔSkp1^1−140 were flowed on the SPRi instrument as analyte to get accurate kinetic parameters. A typical sample injection cycle consists of 300 seconds association phase with the analyte solution and 400 seconds dissociation phase with running buffer at 3 μL s^−1 flow rate. Other purified proteins such as mutant forms of Skp1 were tested to confirm binding pocket specificity. The highest concentration tested for each protein was 8 μM. For data analysis, we choose two software packages, ORIGIN Lab and Data Analysis Module (DAM) of Plexera. All data from SPRi reported here are after subtraction of the background intensity/signal by DAM software. In short, the entire concentration of analyte was fitted with a 1:1 Langmuir interaction integrated rate equation to obtain the kinetic constants.

Skp1 (F101A) = biological target: T4, Skp1 (F101A) (Homo sapiens, UniProt P63208, F101A); assay: SPRi assay, Skp1 mutant; type: binding
T4 construct: His6; made in house; host or cells: Escherichia coli BL21 (DE3)
Method: as §1, §2, §3

Skp1 (F101A_F139A) = biological target: T5, Skp1 (F101A_F139A) (Homo sapiens, UniProt P63208, F101A/F139A); assay: SPRi assay, Skp1 mutant; type: binding
T5 construct: His6; made in house; host or cells: Escherichia coli BL21 (DE3)
Method: as §1, §2, §3

Skp1 (F139D) = biological target: T6, Skp1 (F139D) (Homo sapiens, UniProt P63208, F139D); assay: SPRi assay, Skp1 mutant; type: binding
T6 construct: His6; made in house; host or cells: Escherichia coli BL21 (DE3)
Method: as §1, §2, §3

Skp1^F139A = biological target: T7, Skp1^F139A (Homo sapiens, UniProt P63208, F139A); assay: SPRi assay, Skp1 mutant; type: binding
T7 construct: His6; made in house; host or cells: Escherichia coli BL21 (DE3)
Method: as §1, §2, §3

Skp1 (Q97A) = biological target: T8, Skp1 (Q97A) (Homo sapiens, UniProt P63208, Q97A); assay: SPRi assay, Skp1 mutant; type: binding
T8 construct: His6; made in house; host or cells: Escherichia coli BL21 (DE3)
Method: as §1, §2, §3

Skp1 (F101W_V123T) = biological target: T9, Skp1 (F101W_V123T) (Homo sapiens, UniProt P63208, F101W/V123T); assay: SPRi assay, Skp1 mutant; type: binding
T9 construct: His6; made in house; host or cells: Escherichia coli BL21 (DE3)
Method: as §1, §2, §3

[1] = biological target: T10, Skp1-ΔSkp2^F−box-peptide interaction (Homo sapiens, UniProt P63208); assay: FP-based in vitro competition assay; type: binding; details: for Ki: calculated from IC50 with Ki calculator
T10 construct: recombinantly purify intact (Skp1^WT) and truncate (ΔSkp1^1−140; lacking H8-helix) forms of Skp1; His6; made in house; host or cells: Escherichia coli BL21 (DE3)
Method: FP measurements were performed using an EnVision multilabel Reader (Perkin Elmer). […] Lyophilized F-box-FAM peptide was initially dissolved in a Tris buffer (20 mM Tris-HCl pH 9.0, 150 mM NaCl, 2 mM DTT), and then a stock solution of 100 μM was prepared by subsequent dilutions in a FP buffer (20 mM Tris-HCl pH 8.0, 150 mM NaCl, 2 mM DTT, 5% (v/v) glycerol, 0.001% (v/v) Triton X-100). Specific controls groups included free F-box-FAM (tracer), bound F-box-FAM in the presence of protein (Skp1^WT or ΔSkp1^1−140), and FP buffer for every measurement, allowing accurate estimation of specific polarization.
The selected subset of compounds were initially assayed at final concentration of 200 μM. The compounds were incubated at room temperature with Skp1^WT for 1 hr, followed by the addition of the tracer. […] After incubation for another 2 hrs, FP signals was measured on an EnVision multilabel Reader. The FP response was measured in quadruplicates with controls including free F-box-FAM (tracer), bound Skp1^WT-F-box-FAM, and FP buffer. The resultant FP values were plotted as bar graphs using ORIGIN Lab software.
For gradient FP assay, protein samples were mixed with an appropriate concentrations of ligand over the range of several folds. […] The IC50 value of the compound in the gradient-concentration assay was determined with nonlinear regression and fitting using the following equation in GraphPad Prism® v6.0 (San Diego, CA). Y = Bottom + (Top – Bottom)/(1 + 10^X−LogIC50). […] In short, the relationship between the IC50 of the inhibitor and the Ki of the inhibitor depends on the KD of the fluorescent ligand and the concentration of the receptor.

T10 sequence (P63208 whole entry, stated change not applied, the tested form may be a part): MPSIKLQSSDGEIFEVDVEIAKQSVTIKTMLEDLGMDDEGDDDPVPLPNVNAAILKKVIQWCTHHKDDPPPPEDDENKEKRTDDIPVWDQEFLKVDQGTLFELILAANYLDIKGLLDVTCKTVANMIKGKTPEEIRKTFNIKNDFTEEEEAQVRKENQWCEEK
T2 sequence (P63208 whole entry, the tested form may be a part): as the sequence (P63208 whole entry, stated change not applied, the tested form may be a part) above
T4 sequence (P63208 whole entry F101A): as the sequence (P63208 whole entry, stated change not applied, the tested form may be a part) above, with F101A counted along it
T6 sequence (P63208 whole entry F139D): as the sequence (P63208 whole entry, stated change not applied, the tested form may be a part) above, with F139D counted along it
T8 sequence (P63208 whole entry Q97A): as the sequence (P63208 whole entry, stated change not applied, the tested form may be a part) above, with Q97A counted along it
T9 sequence (P63208 whole entry F101W/V123T): as the sequence (P63208 whole entry, stated change not applied, the tested form may be a part) above, with F101W, V123T counted along it
T7 sequence (P63208 whole entry F139A): as the sequence (P63208 whole entry, stated change not applied, the tested form may be a part) above, with F139A counted along it
T5 sequence (P63208 whole entry F101A/F139A): as the sequence (P63208 whole entry, stated change not applied, the tested form may be a part) above, with F101A, F139A counted along it
T3 sequence (P63208 whole entry V123D): as the sequence (P63208 whole entry, stated change not applied, the tested form may be a part) above, with V123D counted along it
T1 sequence (P63208 1-140, stated change not applied): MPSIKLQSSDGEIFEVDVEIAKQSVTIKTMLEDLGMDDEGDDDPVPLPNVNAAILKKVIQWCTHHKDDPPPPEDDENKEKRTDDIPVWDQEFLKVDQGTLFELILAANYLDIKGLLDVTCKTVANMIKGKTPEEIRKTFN

Structure (SMILES): Nc1ccc(-c2nc3ccccc3c3[nH]c4ccccc4c23)cc1 [Z0933M]
- binding by LC-MS/MS (ΔSkp1^1−140): robust binding
- Kd (Skp1^WT; SPRi, Skp1^WT): 54.7 ± 6.68 nM
- Kd (Skp1^WT; as given in the summary): ~54 nM
- MIC (mycobacterial): > 30 µM
- Kd (Skp1 (V123D)): 1270 ± 95.5 nM
- Kd (Skp1 (F101A)): 374 ± 45.6 nM
- Kd (Skp1 (F101A_F139A)): 799 ± 54.8 nM
- Kd (Skp1 (F139D)): 1140 ± 95.5 nM
- Kd (Skp1^F139A): 455 ± 47.7 nM
- Kd (Skp1 (Q97A)): 477 ± 4.95 nM
- Kd (Skp1 (F101W_V123T)): 336 ± 36.8 nM
- inhibition of Skp1-ΔSkp2^F−box-peptide interaction ([1]; 200 μM compound, 25 μM Skp1^WT, 500 nM tracer): almost completely disrupted
- Ki [1]: 231 ± 18 nM
- Ki ([1]; figure): ~231 nM
- IC50 ([1]; dose-response FP, Skp1^WT 25 μM, tracer 500 nM): ~25000 nM
